In patent publication US12704459B2, “Methods, compositions, and kits for assay signal amplification” (MESO SCALE TECHNOLOGIES, LLC., priority 2021, dated 2026):

Experiments:
[1] = system: anti-SULFO-TAG antibody clones; test: Competition assay: ligands SM, Bpy or A against TAG compound binding; design: species or system mouse; details: 2 μM of ligand
Method: FIGS. 20A-20I show the results of exemplary competitive binding assays between the TAG compounds shown in FIG. 18A and the SM, Bpy, or A ligands shown in FIG. 18A, with the anti-SULFO-TAG antibody clones described in Example 4. The graphs show the remaining ECL signal after anti-SULFO-TAG antibodies were exposed to 2 μM of each ligand, then varying concentrations of each of the TAG compounds. Lower ECL signal is indicative of stronger binding affinity to a particular ligand. The three panels in the right-most column show ECL signals from exposing the anti-SULFO-TAG antibody clones to 10 nM of the TAG compounds alone (without ligands).
To further verify the role of ligands in antibody recognition, the antibodies were coated on MSD® 96-well Small Spot Streptavidin plates and first exposed to 2 μM of ligands SM, Bpy, or A, then exposed to different concentrations of the TAG compounds as a competition assay.

[2] = ECL generation of free TAG compounds spiked into ECL read buffer; type: physicochemical; details: free TAG compound in ECL read buffer, 96-well bare carbon plates
Method: An epitope recognition study was performed on the eleven anti-SULFO-TAG antibody clones described in Example 4. To study the epitope recognition of these antibody clones, four organometallic Ru^2+ compounds (“TAG compounds”) with varying numbers of sulfomethyl-bipyridine (“SM”) or bipyridine (“Bpy”) ligands as shown in FIG. 18A were prepared. The SULFO-TAG is denoted as Ru^+2(SM)2A1, which includes an acid ligand (“A”) in one of the Bpy groups and is more similar in structure with Bpy than SM. ECL generation from each TAG compound was verified by spiking the TAG compounds into ECL read buffer, and the ECL signal from each free TAG compound was measured on 96-well bare carbon plates. […] The Ru(Bpy)3 ECL signal, when normalized for concentration, would be 248,576 ECL units, similar to the other TAG compounds.

For `c1ccc(-c2ccccn2)nc1` [Bpy, bipyridine], which “ligand binding / competition with antibody binding to Ru^+2(SM)3 and SULFO-TAG” value [1] is on record?
Its value is “unable to significantly outcompete antibody binding”.

With `[Ru+2].c1ccc(-c2ccccn2)nc1.c1ccc(-c2ccccn2)nc1.c1ccc(-c2ccccn2)nc1` [Ru(Bpy)3] as the molecule, how does the “ECL signal, normalized for concentration” value [2] read?
Its value is 248,576 ECL units.

With sulfomethyl-bipyridine [SM] as the molecule, how does the “ligand binding / competition with antibody binding to Ru^+2(SM)3 and SULFO-TAG” value [1] read?
Its value is “strongest binding”.
